Experimental data reported in PubChem BioAssay (NCI).
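GI50 marks 50% less growth. TGI is the concentration that stops growth completely.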

Key:
Assay in all cases: NCI-60 cell line screen, 384-well format
[1] = tested on: EKVX NSCLC
[2] = tested on: LOX IMVI melanoma
[3] = tested on: SK-MEL-5 melanoma
[4] = tested on: K-562 leukemia
[5] = tested on: NCI-H522 lung
[6] = tested on: UACC-257 melanoma
[7] = tested on: CCRF-CEM leukemia
[8] = tested on: SNB-19 CNS
[9] = tested on: OVCAR-8 ovarian
[10] = tested on: KM12 colon
[11] = tested on: HOP-92 NSCLC
[12] = tested on: SF-268 CNS
[13] = tested on: SK-MEL-2 melanoma
[14] = tested on: PC-3 prostate
[15] = tested on: OVCAR-5 ovarian
[16] = tested on: HOP-62 NSCLC
[17] = tested on: HT29 colon
[18] = tested on: SN12C renal
[19] = tested on: UO-31 renal
[20] = tested on: A498 renal
[21] = tested on: SF-295 CNS
[22] = tested on: OVCAR-3 ovarian
[23] = tested on: MDA-MB-231 breast
[24] = tested on: RXF 393 renal
[25] = tested on: NCI-H460 NSCLC
[26] = tested on: MOLT-4 leukemia
[27] = tested on: NCI-H23 lung
[28] = tested on: HS 578T breast
[29] = tested on: HL-60(TB) leukemia
[30] = tested on: A549 NSCLC
[31] = tested on: NCI/ADR-RES ovarian
[32] = tested on: HCC-2998 colon
[33] = tested on: UACC-62 melanoma
[34] = tested on: COLO 205 colon
[35] = tested on: SNB-75 CNS
[36] = tested on: SF-539 CNS
[37] = tested on: SR leukemia
[38] = tested on: MDA-MB-435 melanoma
[39] = tested on: OVCAR-4 ovarian
[40] = tested on: HCT-15 colon
[41] = tested on: NCI-H226 lung
[42] = tested on: U251 glioblastoma
[43] = tested on: MALME-3M melanoma
[44] = tested on: NCI-H322M lung
[45] = tested on: SW-620 colon
[46] = tested on: BT-549 breast
[47] = tested on: HCT-116 colon

Question: Which results are given for `Cc1cc(F)c(C(=O)Nc2cccc(-c3nncn3C(C)C)n2)cc1-n1cnc(C2CC2)c1`?
Answer: GI50 [1]: 5.8 µM; TGI [1]: 22.1 µM; GI50 [2]: 13.7 µM; TGI [2]: 28.9 µM; GI50 [3]: 6.96 µM; TGI [3]: 19.3 µM; GI50 [4]: 5.52 µM; TGI [4]: 21.3 µM; GI50 [5]: 3.31 µM; TGI [5]: 13.7 µM; GI50 [6]: 16.7 µM; TGI [6]: 31.2 µM; GI50 [7]: 7.73 µM; TGI [7]: 20.2 µM; GI50 [8]: 22.6 µM; TGI [8]: > 100 µM; GI50 [9]: 12 µM; TGI [9]: 25.6 µM; GI50 [10]: 15.6 µM; TGI [10]: 30.6 µM; GI50 [11]: 17.7 µM; TGI [11]: > 82.9 µM; GI50 [12]: 15 µM; TGI [12]: 47.7 µM; GI50 [13]: 19.9 µM; TGI [13]: 35.5 µM; GI50 [14]: 15.5 µM; TGI [14]: 30.2 µM; GI50 [15]: 23.9 µM; TGI [15]: > 80.5 µM; GI50 [16]: 8.04 µM; TGI [16]: 29.3 µM; GI50 [17]: 22 µM; TGI [17]: > 94.4 µM; GI50 [18]: 19.4 µM; TGI [18]: > 93.6 µM; GI50 [19]: 10.4 µM; TGI [19]: 23.7 µM; GI50 [20]: 10.1 µM; TGI [20]: > 76.6 µM; GI50 [21]: 15.4 µM; TGI [21]: 98.9 µM; GI50 [22]: 14.7 µM; TGI [22]: 41.1 µM; GI50 [23]: 15.3 µM; TGI [23]: > 85.9 µM; GI50 [24]: 10.3 µM; TGI [24]: 25.2 µM; GI50 [25]: 12.9 µM; TGI [25]: 43 µM; GI50 [26]: 5.69 µM; TGI [26]: 18.1 µM; GI50 [27]: 4.62 µM; TGI [27]: 16.8 µM; GI50 [28]: 8.3 µM; TGI [28]: 35.2 µM; GI50 [29]: 6.26 µM; TGI [29]: 18.3 µM; GI50 [30]: 8.05 µM; TGI [30]: 66.6 µM; GI50 [31]: 11.1 µM; TGI [31]: 23.6 µM; GI50 [32]: 16.7 µM; TGI [32]: 57.2 µM; GI50 [33]: 12.9 µM; TGI [33]: 25.9 µM; GI50 [34]: 3.83 µM; TGI [34]: 12.4 µM; GI50 [35]: 13.5 µM; TGI [35]: 27.6 µM; GI50 [36]: 14.5 µM; TGI [36]: 42.6 µM; GI50 [37]: 3.62 µM; TGI [37]: 11.2 µM; GI50 [38]: 13.2 µM; TGI [38]: 30 µM; GI50 [39]: 17.2 µM; TGI [39]: 38.5 µM; GI50 [40]: 17.6 µM; TGI [40]: 45.3 µM; GI50 [41]: 12.6 µM; TGI [41]: 31.4 µM; GI50 [42]: 11.9 µM; TGI [42]: > 81.6 µM; GI50 [43]: 15.2 µM; TGI [43]: 35 µM; GI50 [44]: 18.8 µM; TGI [44]: 44.6 µM; GI50 [45]: 13.9 µM; TGI [45]: 32.3 µM; GI50 [46]: 11.2 µM; TGI [46]: 23.6 µM; GI50 [47]: 17.6 µM; TGI [47]: 71.1 µM

Question: For `C[C@@H](Nc1nc(N[C@H](C)C(F)(F)F)nc(-c2cccc(Cl)n2)n1)C(F)(F)F`, which GI50 [1] is on record?
Answer: > 100 µM

Question: What about the TGI [1] of the same compound?
Answer: > 100 µM

Question: And the GI50 [2]?
Answer: > 100 µM

Question: And the TGI [2]?
Answer: > 100 µM

Question: And the GI50 [3]?
Answer: 28.2 µM

Question: And the TGI [3]?
Answer: > 100 µM

Question: What about the GI50 [4] of the same compound?
Answer: > 100 µM

Question: And the TGI [4]?
Answer: > 100 µM

Question: What about the GI50 [5] of the same compound?
Answer: > 100 µM

Question: And the TGI [5]?
Answer: > 100 µM

Question: What about the GI50 [6] of the same compound?
Answer: 98.4 µM

Question: What about the TGI [6] of the same compound?
Answer: > 100 µM

Question: What about the GI50 [7] of the same compound?
Answer: > 100 µM

Question: And the TGI [7]?
Answer: > 100 µM

Question: What about the GI50 [8] of the same compound?
Answer: > 82.4 µM

Question: What about the TGI [8] of the same compound?
Answer: > 100 µM

Question: And the GI50 [9]?
Answer: 47.2 µM

Question: And the TGI [9]?
Answer: > 100 µM

Question: What about the GI50 [10] of the same compound?
Answer: > 91.7 µM

Question: What about the TGI [10] of the same compound?
Answer: > 100 µM

Question: And the GI50 [11]?
Answer: 43 µM

Question: What about the TGI [11] of the same compound?
Answer: > 100 µM

Question: What about the GI50 [12] of the same compound?
Answer: 39.6 µM

Question: And the TGI [12]?
Answer: > 100 µM

Question: And the GI50 [13]?
Answer: 14.6 µM

Question: What about the TGI [13] of the same compound?
Answer: 30.2 µM

Question: And the GI50 [14]?
Answer: > 51.1 µM

Question: And the TGI [14]?
Answer: > 80.9 µM

Question: And the GI50 [15]?
Answer: > 100 µM

Question: And the TGI [15]?
Answer: > 100 µM

Question: What about the GI50 [16] of the same compound?
Answer: 28.5 µM

Question: What about the TGI [16] of the same compound?
Answer: > 65.4 µM

Question: What about the GI50 [17] of the same compound?
Answer: > 100 µM

Question: And the TGI [17]?
Answer: > 100 µM

Question: What about the GI50 [18] of the same compound?
Answer: > 62.6 µM

Question: What about the TGI [18] of the same compound?
Answer: > 100 µM

Question: What about the GI50 [19] of the same compound?
Answer: > 100 µM

Question: And the TGI [19]?
Answer: > 100 µM

Question: What about the GI50 [20] of the same compound?
Answer: 32.9 µM

Question: What about the TGI [20] of the same compound?
Answer: > 72.4 µM

Question: What about the GI50 [21] of the same compound?
Answer: > 83.8 µM

Question: What about the TGI [21] of the same compound?
Answer: > 100 µM

Question: What about the GI50 [22] of the same compound?
Answer: 28.8 µM

Question: What about the TGI [22] of the same compound?
Answer: > 100 µM

Question: And the GI50 [23]?
Answer: 27.9 µM

Question: And the TGI [23]?
Answer: > 83.3 µM

Question: What about the GI50 [24] of the same compound?
Answer: 24.2 µM

Question: What about the TGI [24] of the same compound?
Answer: 58.8 µM

Question: And the GI50 [25]?
Answer: 36.4 µM

Question: And the TGI [25]?
Answer: > 100 µM

Question: And the GI50 [26]?
Answer: > 100 µM

Question: And the TGI [26]?
Answer: > 100 µM

Question: And the GI50 [27]?
Answer: > 49.9 µM

Question: And the TGI [27]?
Answer: > 89.7 µM

Question: And the GI50 [28]?
Answer: 21.1 µM

Question: What about the TGI [28] of the same compound?
Answer: 63.2 µM

Question: And the GI50 [29]?
Answer: > 85.3 µM

Question: And the TGI [29]?
Answer: > 100 µM

Question: And the GI50 [30]?
Answer: > 51.8 µM

Question: And the TGI [30]?
Answer: > 83 µM

Question: And the GI50 [31]?
Answer: > 82.3 µM

Question: And the TGI [31]?
Answer: > 100 µM

Question: What about the GI50 [32] of the same compound?
Answer: > 80.1 µM

Question: And the TGI [32]?
Answer: > 100 µM

Question: What about the GI50 [33] of the same compound?
Answer: 38.6 µM

Question: What about the TGI [33] of the same compound?
Answer: > 76.9 µM

Question: What about the GI50 [34] of the same compound?
Answer: > 100 µM

Question: And the TGI [34]?
Answer: > 100 µM

Question: And the GI50 [35]?
Answer: 29.5 µM

Question: What about the TGI [35] of the same compound?
Answer: > 75.4 µM

Question: What about the GI50 [36] of the same compound?
Answer: > 69.1 µM

Question: What about the TGI [36] of the same compound?
Answer: > 100 µM

Question: And the GI50 [37]?
Answer: > 77.3 µM

Question: What about the TGI [37] of the same compound?
Answer: > 100 µM

Question: What about the GI50 [38] of the same compound?
Answer: > 77.9 µM

Question: What about the TGI [38] of the same compound?
Answer: > 100 µM

Question: What about the GI50 [39] of the same compound?
Answer: 21.7 µM

Question: And the TGI [39]?
Answer: 55 µM

Question: What about the GI50 [40] of the same compound?
Answer: > 100 µM

Question: And the TGI [40]?
Answer: > 100 µM

Question: What about the GI50 [41] of the same compound?
Answer: 84.7 µM

Question: What about the TGI [41] of the same compound?
Answer: > 100 µM

Question: And the GI50 [42]?
Answer: 40 µM

Question: And the TGI [42]?
Answer: > 100 µM

Question: What about the GI50 [43] of the same compound?
Answer: > 66 µM

Question: And the TGI [43]?
Answer: > 100 µM

Question: What about the GI50 [44] of the same compound?
Answer: > 100 µM

Question: What about the TGI [44] of the same compound?
Answer: > 100 µM

Question: What about the GI50 [45] of the same compound?
Answer: > 49.5 µM

Question: What about the TGI [45] of the same compound?
Answer: > 70.6 µM

Question: And the GI50 [46]?
Answer: 32.5 µM

Question: What about the TGI [46] of the same compound?
Answer: > 70.3 µM

Question: And the GI50 [47]?
Answer: 89.3 µM

Question: What about the TGI [47] of the same compound?
Answer: > 100 µM
